Reference: PMC2099433, “The binding site for neohesperidin dihydrochalcone at the human sweet taste receptor” (BMC Structural Biology, 2007)
Numbering of substitutions follows the chain as printed. Where a SMILES comes first, the peptide text is derived from it.

How the values were obtained:
[1] = biological target: T1, hTAS1R2 + hTAS1R3 A733V^5.46 (Homo sapiens, UniProt Q7RTX0+Q8TE23, A733V); assay: Calcium response (FLIPR), hTAS1R3 mutant coexpressed with hTAS1R2; type: cell-based; details: variant A733V^5.46; for Emax: read-out: maximal signal (% of wt)
T1 construct: expressed in transfected cells; host or cells: HEK293T cells stably expressing G16Gust44
T1 sequence (Q8TE23 20-839): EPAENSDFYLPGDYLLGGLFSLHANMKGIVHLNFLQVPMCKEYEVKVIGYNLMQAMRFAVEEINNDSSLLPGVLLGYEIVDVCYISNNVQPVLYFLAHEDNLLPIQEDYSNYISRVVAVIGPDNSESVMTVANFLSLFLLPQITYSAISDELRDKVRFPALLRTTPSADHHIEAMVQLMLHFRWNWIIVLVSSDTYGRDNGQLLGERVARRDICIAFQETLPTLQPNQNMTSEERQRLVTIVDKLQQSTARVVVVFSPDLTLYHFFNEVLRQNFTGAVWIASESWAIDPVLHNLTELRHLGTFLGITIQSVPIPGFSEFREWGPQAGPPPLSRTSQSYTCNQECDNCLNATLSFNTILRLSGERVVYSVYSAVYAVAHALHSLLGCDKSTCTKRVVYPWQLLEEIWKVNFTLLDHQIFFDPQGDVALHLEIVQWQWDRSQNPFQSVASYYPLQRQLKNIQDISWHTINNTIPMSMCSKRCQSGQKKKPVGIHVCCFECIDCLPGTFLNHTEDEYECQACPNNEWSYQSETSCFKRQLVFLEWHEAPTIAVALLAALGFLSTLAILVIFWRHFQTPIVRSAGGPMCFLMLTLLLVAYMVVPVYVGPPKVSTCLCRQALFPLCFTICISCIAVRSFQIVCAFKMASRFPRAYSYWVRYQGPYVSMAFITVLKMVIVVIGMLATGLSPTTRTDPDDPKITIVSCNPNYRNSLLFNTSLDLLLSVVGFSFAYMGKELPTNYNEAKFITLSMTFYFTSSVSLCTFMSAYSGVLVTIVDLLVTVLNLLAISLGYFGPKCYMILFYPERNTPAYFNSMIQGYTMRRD
T1 sequence (Q7RTX0 21-852 A733V): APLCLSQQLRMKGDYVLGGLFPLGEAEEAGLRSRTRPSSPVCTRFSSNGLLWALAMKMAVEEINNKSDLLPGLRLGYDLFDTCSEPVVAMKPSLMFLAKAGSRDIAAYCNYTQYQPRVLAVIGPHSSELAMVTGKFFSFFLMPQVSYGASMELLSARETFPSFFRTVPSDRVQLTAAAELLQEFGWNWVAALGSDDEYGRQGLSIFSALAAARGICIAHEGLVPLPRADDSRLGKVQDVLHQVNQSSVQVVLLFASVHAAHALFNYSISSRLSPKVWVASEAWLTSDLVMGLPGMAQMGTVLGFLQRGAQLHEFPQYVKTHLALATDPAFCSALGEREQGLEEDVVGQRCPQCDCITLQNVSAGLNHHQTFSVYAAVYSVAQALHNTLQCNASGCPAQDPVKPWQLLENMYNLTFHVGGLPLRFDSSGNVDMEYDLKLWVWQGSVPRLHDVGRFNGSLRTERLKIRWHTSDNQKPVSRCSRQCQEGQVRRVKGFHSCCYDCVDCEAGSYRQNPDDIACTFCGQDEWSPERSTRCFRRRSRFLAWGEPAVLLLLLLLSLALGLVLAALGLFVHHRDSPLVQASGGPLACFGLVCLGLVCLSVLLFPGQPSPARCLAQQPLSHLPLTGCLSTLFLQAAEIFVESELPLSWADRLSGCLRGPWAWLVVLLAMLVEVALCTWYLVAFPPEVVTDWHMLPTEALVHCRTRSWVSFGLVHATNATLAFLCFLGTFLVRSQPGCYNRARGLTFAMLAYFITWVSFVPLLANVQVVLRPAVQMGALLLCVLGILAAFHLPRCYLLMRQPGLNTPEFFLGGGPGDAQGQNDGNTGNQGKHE
Outline: (§1)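 Calcium mobilization was measured by FLIPR in Fluo4-AM-loaded HEK293T cells coexpressing G16Gust44 with the tagged receptor pair. Signals had mock responses removed and were given as ΔF/F.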

[2] = biological target: T2, hTAS1R2 + hTAS1R3 Q636A^3.28 (Homo sapiens, UniProt Q7RTX0+Q8TE23, Q636A); assay: as above; type: cell-based; details: variant Q636A^3.28; for Emax: read-out: maximal signal (% of wt)
T2 construct: expressed in transfected cells; host or cells: HEK293T cells stably expressing G16Gust44
T2 sequence (Q8TE23 20-839): T1 sequence (Q8TE23 20-839)
T2 sequence (Q7RTX0 21-852 Q636A): T1 sequence (Q7RTX0 21-852 A733V) with Q616A, V713A
Outline: as §1

SMILES	EC50 [1]	Emax [1]	EC50 [2]	Emax [2]
COc1ccc(CCC(=O)c2c(O)cc(O[C@@H]3O[C@H](CO)[C@@H](O)[C@H](O)[C@H]3O[C@@H]3O[C@@H](C)[C@H](O)[C@@H](O)[C@H]3O)cc2O)cc1O [NHDC, neohesperidin dihydrochalcone]	100 ± 20 µM	133 ± 8%	300 ± 200 µM	61 ± 29%
COC(=O)[C@H](Cc1ccccc1)NC(=O)[C@@H](N)CC(=O)O [aspartame] (HELM PEPTIDE1{D.F.[CO[*:1]]}$$$$V2.0)	1100 ± 300 µM	92 ± 80%	1100 ± 100 µM	70 ± 18%
